The values that follow come from PMC11882969 (Nature Communications, 2025).

The target of this assay is CB1 (rCB1) (Rattus norvegicus, UniProt P20272). The assay is described as follows: Single-point radioligand displacement screen. Format: binding. The conditions noted are these: for % 1H-CP-55,940 displacement (mean) from single point screen: 10 µM, 1 µM or 300 nM by cell colour (not visible); for rep1_displacement / rep2_displacement / rep3_displacement: Figure 1c source data; for rep1_displacement: replicate 1; for rep2_displacement: replicate 2; for rep3_displacement: replicate 3; for % radioligand displacement [S.D]: single point at 10 µM, three replicates.
CB1 (rCB1), sequence (P20272 whole entry): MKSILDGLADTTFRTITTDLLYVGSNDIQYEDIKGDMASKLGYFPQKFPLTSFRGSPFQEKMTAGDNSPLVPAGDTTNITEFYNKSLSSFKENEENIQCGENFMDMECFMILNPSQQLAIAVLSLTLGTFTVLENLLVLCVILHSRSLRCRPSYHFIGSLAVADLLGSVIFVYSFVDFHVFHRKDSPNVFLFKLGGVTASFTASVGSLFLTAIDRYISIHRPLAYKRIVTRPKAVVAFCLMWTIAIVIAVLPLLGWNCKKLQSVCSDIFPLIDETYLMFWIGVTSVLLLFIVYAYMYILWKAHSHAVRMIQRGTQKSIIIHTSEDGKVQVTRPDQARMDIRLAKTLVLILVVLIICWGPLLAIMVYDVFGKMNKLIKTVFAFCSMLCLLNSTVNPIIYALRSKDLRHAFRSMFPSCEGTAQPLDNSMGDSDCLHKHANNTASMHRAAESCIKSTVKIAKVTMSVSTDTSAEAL

Consider `Cc1nc(C2CC2)oc1-c1nc(Cc2ccc3c(c2)OCO3)no1` [compound 0682], for which the “% 1H-CP-55,940 displacement (mean) from single point screen” value (from here on “% 1H-CP-55,940 displacement (mean)”) is reported as -7.41%.

Regarding `COc1ccc(Cc2noc(-c3oc(CC4CC4)nc3C)n2)cc1` [compound 8861], the “% 1H-CP-55,940 displacement (mean)” value is 15.76%.

Regarding `COCCOc1cc(C(=O)N2CCCC(CC3CCOC3)C2)nc2ccccc12` (centres unmarked) [compound 49667], the “% 1H-CP-55,940 displacement (mean)” value worked out at 4.27%, the rep1_displacement came to 10.3, the rep2_displacement is recorded as 4.1 and the rep3_displacement is listed as -1.6.

With `COC(=O)[C@@H]1[C@@H]2CCC[C@@H]2CN1C(=O)c1nn(-c2cccc(C(F)(F)F)c2)c2c1CCC2` [10_17], the “% 1H-CP-55,940 displacement (mean)” value stood at 98.24%.

`Cc1nc(CC2CC2)oc1-c1nc(Cc2ccc3c(c2)OCCCO3)no1` [7019_1]: the “% 1H-CP-55,940 displacement (mean)” value stood at 6.40%.

Consider `c1ccc(-c2nc(C3CC3)sc2-c2nnc(-c3ccc4c(c3)OCO4)o2)cc1` [7019_32], for which the “% 1H-CP-55,940 displacement (mean)” value came out at 39.89%.

On to `COC1CCn2cc(C(=O)NCC(Cc3ccccc3)c3ccccc3)nc2C1` (centres unmarked) [compound 96198], for which the “% 1H-CP-55,940 displacement (mean)” value was 18.71%, the rep1_displacement is listed as 19.2, the rep2_displacement came out at 20.5 and the rep3_displacement was determined as 16.4.

`O=C1Cc2cc(-c3csc(Cc4ccc(F)cc4)n3)cc3c2N1CCC3` [‘1038]: the “% 1H-CP-55,940 displacement (mean)” value is reported as 53.57%, the rep1_displacement turned out to be 56.9, the rep2_displacement turned out to be 51.4 and the rep3_displacement was 52.5. Also, the “% radioligand displacement [S.D]” value was 53.6% [2.91].

Regarding `O=C1CN(C(=O)c2cc3cc(Br)ccc3o2)CN1Cc1ccccc1` [compound 46675], the “% 1H-CP-55,940 displacement (mean)” value was determined as 22.64% and the rep1_displacement is reported as 22.6.

On to `Cc1c(C(=O)OCc2nc3ccccc3o2)cnn1Cc1ccccc1` [compound 8354], for which the “% 1H-CP-55,940 displacement (mean)” value was determined as 59.03%.

Regarding `N#Cc1cccc(-n2ccc(C(=O)OCC3CSc4ccccc4O3)n2)c1` (centres unmarked) [compound 2666], the “% 1H-CP-55,940 displacement (mean)” value worked out at 30.46%.

Turning to `COC(=O)[C@H](C)NC(=O)c1cc(C)n(-c2cccc(F)c2)n1` [1486_11], the “% 1H-CP-55,940 displacement (mean)” value was -7.46%.

`COC(=O)C(NC(=O)c1cc(C)n(-c2ccccc2)n1)c1cccnc1` (centres unmarked) [compound 03453]: the “% 1H-CP-55,940 displacement (mean)” value is reported as -5.45%.

Take `COCc1nc(-c2nc(Cc3ccc4c(c3)OCO4)no2)c(-c2ccccc2)s1` [7019_29]: the “% 1H-CP-55,940 displacement (mean)” value came out at 24.10%.

With `COC(=O)C(NC(=O)c1cc(C)n(-c2cccc(Cl)c2)n1)c1ccc(C(F)(F)F)cc1` (centres unmarked) [compound 14083], the “% 1H-CP-55,940 displacement (mean)” value is 24.29%.

Regarding `CCOC(=O)C(NC(=O)c1cc(C)n(-c2cccc(F)c2)n1)C1CCOCC1` (centres unmarked) [compound 64854], the “% 1H-CP-55,940 displacement (mean)” value is listed as -2.51%.

`CC1C(C(F)(F)F)CCN1C(=O)c1csc(N(C)c2ccccc2)n1` (centres unmarked) [compound 27005]: the “% 1H-CP-55,940 displacement (mean)” value is 32.20%, the rep1_displacement was 31.7, the rep2_displacement is given as 30.7 and the rep3_displacement is given as 34.2.

As to `O=c1ccc(-c2nc(C(F)(F)c3ccc(F)cc3)no2)nn1-c1ccc(F)cc1` [‘2443], the “% 1H-CP-55,940 displacement (mean)” value is reported as 51.06%, the rep1_displacement stood at 53.4, the rep2_displacement is recorded as 54.3 and the rep3_displacement was found to be 45.5. For the same compound, the “% radioligand displacement [S.D]” value was 51.1% [4.87].

On to `Cn1nc(-c2nnc(C(C)(C)Oc3cccc(Cl)c3)o2)c2ccccc2c1=O` [0450_22], for which the “% 1H-CP-55,940 displacement (mean)” value is on record as 43.54%.

For `O=C(Nc1cccc2ccsc12)c1ccn(-c2cccc(F)c2)n1` [1486_22], the “% 1H-CP-55,940 displacement (mean)” value was -3.59%.

For `Cc1nc(CC2CC2)oc1-c1nc(Cc2ccc3c(c2)OCO3)no1` [compound 97058], the “% 1H-CP-55,940 displacement (mean)” value worked out at 17.45%.

For `CCCCc1nc(C)c(Cc2nc(Cc3ccc4c(c3)OCO4)no2)s1` [7019_27], the “% 1H-CP-55,940 displacement (mean)” value came out at 45.01%.

`COC(=O)[C@@H](NC(=O)c1cc(C)n(-c2cccc(Cl)c2)n1)c1ccc(OC)cc1` [compound 69543]: the “% 1H-CP-55,940 displacement (mean)” value came out at 10.83%.

Consider `Fc1ccc(-n2ncc3c(SCc4cc(-c5ccco5)on4)ncnc32)cc1` [compound 23397], for which the “% 1H-CP-55,940 displacement (mean)” value is 17.08%, the rep1_displacement came out at 23, the rep2_displacement worked out at 15.9 and the rep3_displacement turned out to be 12.4.

With `O=C1CN(C(=O)c2ccc(Cl)c3cccnc23)CN1Cc1ccccc1` [compound 14861], the “% 1H-CP-55,940 displacement (mean)” value turned out to be 15.10%, the rep1_displacement is 15, the rep2_displacement is 15.3 and the rep3_displacement is reported as 15.

In turn, `CCCCCCC1(c2cc(O)c3c(c2)OC(C)(C)[C@@H]2CC[C@@H](O)C[C@@H]32)CCC1` [AM2389, reference compound] came in with a rep1_displacement of 99.9, a rep2_displacement of 99.9 and a rep3_displacement of 99.8.

Turning to `CCOC(=O)CCC(OC(=O)c1nc(C)n(-c2ccccc2)n1)c1ccccc1` (centres unmarked) [compound 11070], the “% 1H-CP-55,940 displacement (mean)” value is 34.00%, the rep1_displacement came to 33.8, the rep2_displacement stood at 28.7 and the rep3_displacement came to 39.6.

Turning to `N#CCCn1ncc(C(=O)N2CCC(F)(c3cc(F)cc(F)c3)C2)c1-c1ccccc1` (centres unmarked) [compound 34734], the “% 1H-CP-55,940 displacement (mean)” value amounted to 15.43%, the rep1_displacement is given as 21.6, the rep2_displacement was 10.3 and the rep3_displacement is reported as 14.4.

With `Cc1cc(C(=O)N2CC3(CCC3)[C@@H]3COC[C@@H]32)nn1-c1cccc(C(F)(F)F)c1` [10_14], the “% 1H-CP-55,940 displacement (mean)” value is 91.30%.

As to `Cc1c(C(=O)NCC2CSc3ccccc3O2)nnn1Cc1ccc(F)cc1` (centres unmarked) [compound 22139], the “% 1H-CP-55,940 displacement (mean)” value amounted to 13.03%.

For the compound `COc1cccc(C2(C)CCN(C(=O)CC34CCCCC3C4(F)F)C2)c1` (centres unmarked) [‘7218], the “% 1H-CP-55,940 displacement (mean)” value came out at 52.18%, the rep1_displacement is listed as 43.4, the rep2_displacement was determined as 33 and the rep3_displacement stood at 80.2. The “% radioligand displacement [S.D]” value worked out at 52.2% [24.79].

Regarding `COc1ccc(OC(C)(C)c2nnc(-c3nn(C)c(=O)c4ccccc34)o2)cc1` [compound 9753], the “% 1H-CP-55,940 displacement (mean)” value is listed as 51.55%.

For `CCCC1CN(C(=O)c2cc(Oc3cccc(Br)c3)ccn2)CCO1` (centres unmarked) [compound 83628], the “% 1H-CP-55,940 displacement (mean)” value came to 12.80%, the rep1_displacement is on record as 14, the rep2_displacement is listed as 14.4 and the rep3_displacement is recorded as 10.1.

Turning to `Cn1cc2c(n1)CCCC2c1nc(C2(c3cccc(C(F)(F)F)c3)CC2)no1` (centres unmarked) [compound 18525], the “% 1H-CP-55,940 displacement (mean)” value is on record as 41.38%, the rep1_displacement is recorded as 39.7, the rep2_displacement was 46.2 and the rep3_displacement worked out at 38.2.

For `CC(C)(C)c1c(C(=O)OCC2CSc3ccccc3O2)cnn1Cc1ccccc1` (centres unmarked) [7800_22], the “% 1H-CP-55,940 displacement (mean)” value turned out to be 73.02%.

As for `CC(C)c1ncc(Cl)c(C(=O)N2CC(Cc3ccccc3Cl)C2)n1` [compound 56513], the “% 1H-CP-55,940 displacement (mean)” value worked out at 36.74%, the rep1_displacement amounted to 17.6, the rep2_displacement is reported as 25.1 and the rep3_displacement was found to be 67.5.

With `CC1OCCC12CN(C(=O)c1oc3ccccc3c1COc1ccccc1)CCO2` (centres unmarked) [compound 70889], the “% 1H-CP-55,940 displacement (mean)” value is on record as 46.62%, the rep1_displacement worked out at 47.8, the rep2_displacement was 46.3 and the rep3_displacement is on record as 45.8.

For `COC(=O)[C@H]1Cc2ccccc2CN1C(=O)c1cc(C)n(-c2cccc(F)c2)n1` [compound 76400], the “% 1H-CP-55,940 displacement (mean)” value was -1.48%.

For `CC(O)C1CCCN(C(=O)c2cc(Oc3cccc(Br)c3)ccn2)C1` (centres unmarked) [compound 74717], the “% 1H-CP-55,940 displacement (mean)” value was found to be 17.22%, the rep1_displacement was determined as 25.4, the rep2_displacement was found to be 11.4 and the rep3_displacement was 14.8.

Regarding `O=C(c1cn(-c2cccc(C(F)(F)F)c2)nn1)N1CC2(CCC2)C1C1CCCO1` (centres unmarked) [10_23], the “% 1H-CP-55,940 displacement (mean)” value came out at 25.67%.

Turning to `CN(C)c1cc(-c2nc(Cc3ccc4c(c3)OCCO4)no2)c2ccccc2n1` [compound 85562], the “% 1H-CP-55,940 displacement (mean)” value is 44.88%, the rep1_displacement stood at 45.9, the rep2_displacement is listed as 44.2 and the rep3_displacement was 44.5.

With `Cc1cc(C(=O)NC(CCO)Cc2ccccc2)nn1-c1ccc(F)cc1` (centres unmarked) [compound 15032], the “% 1H-CP-55,940 displacement (mean)” value was -0.53%.

Turning to `Cc1c(C(=O)OCC2CSc3ccccc3O2)cnn1Cc1ccc2ccccc2c1` (centres unmarked) [7800_24], the “% 1H-CP-55,940 displacement (mean)” value was 50.03%.

With `COC(=O)c1nc(N(C)CCOc2ccc(Br)cc2)sc1C` [compound 22875], the “% 1H-CP-55,940 displacement (mean)” value amounted to 27.03%, the rep1_displacement came to 25.7, the rep2_displacement was determined as 29.1 and the rep3_displacement was 26.3.

As for `Cc1c(C(=O)OCC2CSc3ccccc3O2)cnn1Cc1cccc(C(F)(F)F)c1` (centres unmarked) [7800_25], the “% 1H-CP-55,940 displacement (mean)” value is given as 58.49%.

For the compound `N#Cc1cccc(OCc2ccoc2C(=O)OCC2CSc3ccccc3O2)c1` (centres unmarked) [compound 35424], the “% 1H-CP-55,940 displacement (mean)” value is reported as 60.22%.

Consider `Cc1c(C(=O)N(C)CC2COc3ccccc3O2)cnn1-c1ccccc1` (centres unmarked) [compound 4148], for which the “% 1H-CP-55,940 displacement (mean)” value was 11.41%.
